Data on one molecule can be found in patent publication US5942494A, “Stimulation of gene expression and synthesis of heat shock protein 72/73 (HSP 70)” (The Trustees of Columbia University in the City of New York, priority 1996, dated 1999).

One assay deals with Hsp70. In words: Cellular Hsp70 levels in CHO cells. The class given is cell-based, Chinese hamster.
Another assay concerns Hsp25. Kind of assay: Immunoprecipitation of Hsp25 from radiolabeled HepG2 cells. Conditions: HepG2, ALLN 4 hours. The class given is cell-based, human. On the procedure: FIGS. 7A-7B: Effects of ALLN on the biosynthesis of other members of Hsp family and related proteins. HepG2 cells were pre-treated and radiolabeled with or without ALLN for 4 hours as described in FIG. 1. Cell lysates were used for SDS-PAGE (A), or for immunoprecipitation with anti-Hsp25, -Hsp27, -Hsp60, -Hsp70, -Hsp86, -Hsp90, -Hsp104, -Bip, or -albumin antibodies respectively (1 μg/ml) (B). Because the anti-Hsp25, -Hsp27, -Hsp60 and Hsp90 antibodies are from a rat source, rabbit anti-rat IgG antibody was added after the first incubation, and the incubation was extended for another 1 hour at 4° C. before collection with protein A-Sepharose.Immunoprecipitates were loaded for SDS-PAGE and aliquoted for scintillation counting and plotting. Each value was presented as mean ±S.D. from three individual culture dishes.
HepG2 cells were preincubated for 4 hours in serum-free MEM and then radiolabeled with ^3 H-Leucine (150 μCi/ml) in a serum-free, leucine-free medium. […] Cell lysates containing equal amounts of trichloroacetic acid (TCA)-insoluble radioactivity were used for immunoprecipitations by incubating with individual monoclonal antibody (1 μg/ml) for 2.5 hours at 4° C. […]

SMILES strings stand for the structures. Square brackets hold non-standard residues; d marks the D form. Peptide text beside a SMILES is read from it. Nle = CCCC[C@H](N)C(=O)O

With `CCCC[C@@H](C=O)NC(=O)[C@H](CC(C)C)NC(=O)[C@H](CC(C)C)NC(C)=O` [ALLN, N-acetyl-leucyl-leucyl-norleucinal] (Ac-Leu-Leu-[Nle]-aldehyde), in the assay on Hsp70, the “Response of cellular Hsp70 levels” value is listed as “increasing cellular Hsp70 levels”. Further, in the assay with Hsp25, the “Effect on Hsp25” value was “no effects”.
